Results taken from ChEMBL document CHEMBL2429764, “Synthesis and cytotoxic activity of novel hybrid compounds between 2-alkylbenzofuran and imidazole” (Med Chem Res, 2013).

Assays:
Type in all cases: functional, cell-based
[1] = test system: SMMC-7721; assay: Cytotoxicity against human SMMC7721 cells after 48 hrs by MTT assay; settings: SMMC-7721, 48 h
[2] = test system: HL-60; assay: Cytotoxicity against human HL60 cells after 48 hrs by MTT assay; settings: HL-60, 48 h
[3] = test system: MCF7; assay: Cytotoxicity against human MCF7 cells after 48 hrs by MTT assay; settings: MCF7, 48 h
[4] = test system: A549; assay: Cytotoxicity against human A549 cells after 48 hrs by MTT assay; settings: A549, 48 h
[5] = test system: SW480; assay: Cytotoxicity against human SW480 cells after 48 hrs by MTT assay; settings: SW480, 48 h

`Cc1n(Cc2cc3ccccc3o2)cc[n+]1CC(=O)c1ccc(O)cc1` was tested, and the IC50 [1] was greater than 40 µM, the IC50 [2] was greater than 40 µM and the IC50 [3] was greater than 40 µM. For the same compound, the IC50 [4] was greater than 40 µM and the IC50 [5] was greater than 40 µM.
`CCc1n(Cc2cc3ccccc3o2)cc[n+]1CC(=O)c1ccccc1` gave an IC50 [1] greater than 40 µM, an IC50 [2] greater than 40 µM and an IC50 [3] greater than 40 µM. The IC50 [4] was greater than 40 µM and the IC50 [5] was greater than 40 µM.
With `O=C(C[n+]1ccn(Cc2cc3ccccc3o2)c1)c1ccc(Br)cc1` the IC50 [1] was 14.3 µM, the IC50 [2] was 10.3 µM and the IC50 [3] was 18 µM. It also gave an IC50 [4] of 12.2 µM and an IC50 [5] greater than 40 µM.
For `CCCC[n+]1cn(Cc2cc3ccccc3o2)c2ccccc21`, the IC50 [1] was greater than 40 µM, the IC50 [2] was greater than 40 µM and the IC50 [3] was greater than 40 µM. For the same compound, the IC50 [4] was greater than 40 µM and the IC50 [5] was greater than 40 µM.
`C=CC[n+]1ccn(Cc2cc3ccccc3o2)c1` was tested, and the IC50 [1] was greater than 40 µM, the IC50 [2] was greater than 40 µM and the IC50 [3] was greater than 40 µM. For the same compound, the IC50 [4] was greater than 40 µM and the IC50 [5] was greater than 40 µM.
`c1ccc2oc(Cn3ccnc3)cc2c1` was tested, and the IC50 [1] was greater than 40 µM, the IC50 [2] was greater than 40 µM and the IC50 [3] was greater than 40 µM. For the same compound, the IC50 [4] was greater than 40 µM and the IC50 [5] was greater than 40 µM.
`CCc1n(Cc2cc3ccccc3o2)cc[n+]1C(C(=O)c1ccccc1)c1ccccc1` (stereo not given) showed an IC50 [1] of 6.16 µM, an IC50 [2] of 2.25 µM and an IC50 [3] of 3.3 µM. For the same compound, the IC50 [4] was 10.3 µM and the IC50 [5] was 7.15 µM.
`O=C(C[n+]1cn(Cc2cc3ccccc3o2)c2ccccc21)c1ccc(Br)cc1` showed an IC50 [1] of 3.58 µM, an IC50 [2] of 1.69 µM and an IC50 [3] of 2.46 µM. For the same compound, the IC50 [4] was 2.54 µM and the IC50 [5] was 4.2 µM.
With `CCc1n(Cc2cc3ccccc3o2)cc[n+]1CC(=O)c1ccc2ccccc2c1` the IC50 [1] was 4.26 µM, the IC50 [2] was 1.45 µM and the IC50 [3] was 2.59 µM. It also gave an IC50 [4] of 7.44 µM and an IC50 [5] of 1.69 µM.
`Brc1ccccc1C[n+]1cn(Cc2cc3ccccc3o2)c2ccccc21` was tested, and the IC50 [1] was 6.83 µM, the IC50 [2] was 2.48 µM and the IC50 [3] was 7.48 µM. The IC50 [4] was 2.63 µM and the IC50 [5] was 14.7 µM.
For `c1ccc2oc(Cn3cnc4ccccc43)cc2c1`, the IC50 [1] was greater than 40 µM, the IC50 [2] was greater than 40 µM and the IC50 [3] was greater than 40 µM. For the same compound, the IC50 [4] was greater than 40 µM and the IC50 [5] was greater than 40 µM.
`O=C(C[n+]1ccn(Cc2cc3ccccc3o2)c1)c1ccccc1` gave an IC50 [1] greater than 40 µM, an IC50 [2] greater than 40 µM and an IC50 [3] greater than 40 µM. For the same compound, the IC50 [4] was greater than 40 µM and the IC50 [5] was greater than 40 µM.
`Cc1n(Cc2cc3ccccc3o2)cc[n+]1CC(=O)c1ccc(Br)cc1` showed an IC50 [1] greater than 40 µM, an IC50 [2] greater than 40 µM and an IC50 [3] greater than 40 µM. It also gave an IC50 [4] greater than 40 µM and an IC50 [5] greater than 40 µM.
Work on `CCc1n(Cc2cc3ccccc3o2)cc[n+]1CC(=O)c1ccc(O)cc1` yielded an IC50 [1] greater than 40 µM, an IC50 [2] greater than 40 µM and an IC50 [3] greater than 40 µM. For the same compound, the IC50 [4] was greater than 40 µM and the IC50 [5] was greater than 40 µM.
Compound `O=C(c1ccccc1)C(c1ccccc1)[n+]1cn(Cc2cc3ccccc3o2)c2ccccc21` (stereo not given) has an IC50 [1] of 14.8 µM, an IC50 [2] of 6.77 µM and an IC50 [3] of 9.83 µM. It also gave an IC50 [4] of 12.6 µM and an IC50 [5] of 9.75 µM.
`Brc1ccccc1C[n+]1ccn(Cc2cc3ccccc3o2)c1` showed an IC50 [1] greater than 40 µM, an IC50 [2] greater than 40 µM and an IC50 [3] greater than 40 µM. It also gave an IC50 [4] greater than 40 µM and an IC50 [5] greater than 40 µM.
`COc1ccc(C(=O)C[n+]2cn(Cc3cc4ccccc4o3)c3ccccc32)cc1` gave an IC50 [1] of 13.6 µM, an IC50 [2] of 3.91 µM and an IC50 [3] of 14.6 µM. It also gave an IC50 [4] of 7.18 µM and an IC50 [5] of 23.1 µM.
`O=C(C[n+]1cn(Cc2cc3ccccc3o2)c2ccccc21)c1ccc2ccccc2c1` was tested, and the IC50 [1] was 6.44 µM, the IC50 [2] was 3.62 µM and the IC50 [3] was 3.72 µM. The IC50 [4] was 6.73 µM and the IC50 [5] was 17.1 µM.
Compound `Cc1n(Cc2cc3ccccc3o2)cc[n+]1CC(=O)c1ccccc1` has an IC50 [1] greater than 40 µM, an IC50 [2] greater than 40 µM and an IC50 [3] greater than 40 µM. It also gave an IC50 [4] greater than 40 µM and an IC50 [5] greater than 40 µM.
`COc1ccc(C(=O)C[n+]2ccn(Cc3cc4ccccc4o3)c2)cc1` gave an IC50 [1] greater than 40 µM, an IC50 [2] greater than 40 µM and an IC50 [3] greater than 40 µM. The IC50 [4] was greater than 40 µM and the IC50 [5] was greater than 40 µM.
Compound `CCc1n(Cc2cc3ccccc3o2)cc[n+]1CC(=O)c1ccc(Br)cc1` has an IC50 [1] of 7.51 µM, an IC50 [2] of 1.87 µM and an IC50 [3] of 4.47 µM. The IC50 [4] was 25.7 µM and the IC50 [5] was 1.34 µM.
Work on `CCc1nccn1Cc1cc2ccccc2o1` yielded an IC50 [1] greater than 40 µM, an IC50 [2] greater than 40 µM and an IC50 [3] greater than 40 µM. It also gave an IC50 [4] greater than 40 µM and an IC50 [5] greater than 40 µM.
With `Cc1n(Cc2cc3ccccc3o2)cc[n+]1C(C(=O)c1ccccc1)c1ccccc1` (stereo not given) the IC50 [1] was 11.3 µM, the IC50 [2] was 4.44 µM and the IC50 [3] was 6.79 µM. The IC50 [4] was 14.8 µM and the IC50 [5] was 9.96 µM.
Compound `CCc1n(Cc2cc3ccccc3o2)cc[n+]1CC(=O)c1ccc(OC)cc1` has an IC50 [1] of 8.43 µM, an IC50 [2] of 0.4 µM and an IC50 [3] of 3.05 µM. For the same compound, the IC50 [4] was 1.13 µM and the IC50 [5] was 1.02 µM.
Work on `Cc1n(Cc2cc3ccccc3o2)cc[n+]1Cc1ccccc1Br` yielded an IC50 [1] of 10.2 µM, an IC50 [2] of 1.28 µM and an IC50 [3] of 2.24 µM. For the same compound, the IC50 [4] was 2.96 µM and the IC50 [5] was 3.89 µM.
Compound `COc1ccc(C(=O)C[n+]2ccn(Cc3cc4ccccc4o3)c2C)cc1` has an IC50 [1] of 11.6 µM, an IC50 [2] of 0.78 µM and an IC50 [3] of 1.44 µM. The IC50 [4] was 0.37 µM and the IC50 [5] was 0.28 µM.
For `Cc1nccn1Cc1cc2ccccc2o1`, the IC50 [1] was greater than 40 µM, the IC50 [2] was greater than 40 µM and the IC50 [3] was greater than 40 µM. It also gave an IC50 [4] greater than 40 µM and an IC50 [5] greater than 40 µM.
For `O=C(C[n+]1ccn(Cc2cc3ccccc3o2)c1)c1ccc2ccccc2c1`, the IC50 [1] was 8.08 µM, the IC50 [2] was 6.27 µM and the IC50 [3] was 12.7 µM. For the same compound, the IC50 [4] was 9.95 µM and the IC50 [5] was 17.1 µM.
For `O=C(C[n+]1cn(Cc2cc3ccccc3o2)c2ccccc21)c1ccccc1`, the IC50 [1] was greater than 40 µM, the IC50 [2] was greater than 40 µM and the IC50 [3] was greater than 40 µM. For the same compound, the IC50 [4] was greater than 40 µM and the IC50 [5] was greater than 40 µM.
For `C=CC[n+]1ccn(Cc2cc3ccccc3o2)c1C`, the IC50 [1] was greater than 40 µM, the IC50 [2] was greater than 40 µM and the IC50 [3] was greater than 40 µM. For the same compound, the IC50 [4] was greater than 40 µM and the IC50 [5] was greater than 40 µM.
`CCCC[n+]1ccn(Cc2cc3ccccc3o2)c1` showed an IC50 [1] greater than 40 µM, an IC50 [2] greater than 40 µM and an IC50 [3] greater than 40 µM. For the same compound, the IC50 [4] was greater than 40 µM and the IC50 [5] was greater than 40 µM.
Work on `O=C(C[n+]1cn(Cc2cc3ccccc3o2)c2ccccc21)c1ccc(O)cc1` yielded an IC50 [1] greater than 40 µM, an IC50 [2] greater than 40 µM and an IC50 [3] greater than 40 µM. The IC50 [4] was greater than 40 µM and the IC50 [5] was greater than 40 µM.
`Cc1n(Cc2cc3ccccc3o2)cc[n+]1CC(=O)c1ccc2ccccc2c1` gave an IC50 [1] of 3.5 µM, an IC50 [2] of 1.04 µM and an IC50 [3] of 1.09 µM. For the same compound, the IC50 [4] was 4.97 µM and the IC50 [5] was 1.03 µM.
In the case of `O=C(C[n+]1ccn(Cc2cc3ccccc3o2)c1)c1ccc(O)cc1`, the IC50 [1] is reported as greater than 40 µM, the IC50 [2] is reported as greater than 40 µM and the IC50 [3] is reported as greater than 40 µM. For the same compound, the IC50 [4] was greater than 40 µM and the IC50 [5] was greater than 40 µM.
